Source: ChEMBL document CHEMBL5523720, “Identification of novel GSPT1 degraders by virtual screening and bioassay” (Eur J Med Chem, 2024)
Activity calls are given as the source filed them. No cut-off for these calls is given here.

Columns and labels:
[1] = test system: U-937; assay: Downregulation of GSPT1 in human U-937 cells incubated for 8 hrs by Western blotting analysis; type: functional, cell-based; conditions: dose 5-40 µM
[2] = test system: U-937; assay: Downregulation of CK1alpha in human U-937 cells incubated for 8 hrs by Western blotting analysis; type: functional, cell-based; conditions: dose 5-40 µM
[3] = target: Eukaryotic peptide chain release factor GTP-binding subunit ERF3A (Homo sapiens) (UniProt P15170); assay: Induction of GSPT1 degradation in human OCI-AML2 cells at 10 uM incubated for 8 hrs by Western blotting analysis; type: cell-based
Eukaryotic peptide chain release factor GTP-binding subunit ERF3A (Homo sapiens), sequence (P15170 whole entry): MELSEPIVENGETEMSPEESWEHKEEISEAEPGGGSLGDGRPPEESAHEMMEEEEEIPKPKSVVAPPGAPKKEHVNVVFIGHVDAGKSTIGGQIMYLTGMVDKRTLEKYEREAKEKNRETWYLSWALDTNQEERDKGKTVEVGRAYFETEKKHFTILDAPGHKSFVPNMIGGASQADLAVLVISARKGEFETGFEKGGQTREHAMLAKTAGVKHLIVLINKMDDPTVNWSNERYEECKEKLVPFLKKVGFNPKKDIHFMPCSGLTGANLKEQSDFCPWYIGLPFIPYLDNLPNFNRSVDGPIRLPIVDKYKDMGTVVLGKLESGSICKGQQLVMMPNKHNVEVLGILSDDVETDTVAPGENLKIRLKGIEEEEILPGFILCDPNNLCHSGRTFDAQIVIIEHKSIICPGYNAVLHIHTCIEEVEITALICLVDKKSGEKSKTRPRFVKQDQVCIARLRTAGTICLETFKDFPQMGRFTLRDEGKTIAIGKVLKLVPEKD

[4] = test system: U-266; assay: Antiproliferative activity against human U-266 cells incubated for 48 hrs by MTS assay; type: functional, cell-based; conditions: U-266, 48 h
[5] = test system: U-937; assay: Downregulation of IKZF1 in human U-937 cells incubated for 8 hrs by Western blotting analysis; type: functional, cell-based; conditions: dose 5-40 µM
[6] = test system: K562; assay: Antiproliferative activity against human K562 cells incubated for 48 hrs by MTS assay; type: functional, cell-based; conditions: K562, 48 h
[7] = test system: U-937; assay: Antiproliferative activity against human U-937 cells incubated for 48 hrs by MTS assay; type: functional, cell-based; conditions: U-937, 48 h
[8] = test system: OCI-AML2; assay: Downregulation of CK1alpha in human OCI-AML2 cells incubated for 8 hrs by Western blotting analysis; type: functional, cell-based; conditions: dose 5-40 µM
[9] = test system: OCI-AML2; assay: Downregulation of IKZF1 in human OCI-AML2 cells incubated for 8 hrs by Western blotting analysis; type: functional, cell-based; conditions: dose 5-40 µM
[10] = test system: OCI-AML2; assay: Downregulation of GSPT1 in human OCI-AML2 cells incubated for 8 hrs by Western blotting analysis; type: functional, cell-based; conditions: dose 5-40 µM
[11] = target: Eukaryotic peptide chain release factor GTP-binding subunit ERF3A (Homo sapiens) (UniProt P15170); assay: Induction of GSPT1 degradation in human U-937 cells at 10 uM incubated for 8 hrs by Western blotting analysis; type: cell-based
[12] = test system: OCI-AML2; assay: Antiproliferative activity against human OCI-AML2 cells incubated for 48 hrs by MTS assay; type: functional, cell-based; conditions: OCI-AML2, 48 h

| SMILES | Activity [1] | Activity [2] | Activity [3] | IC50 [4] [µM] | Activity [5] | IC50 [6] [µM] | IC50 [7] [µM] | Activity [8] | Activity [9] | Activity [10] | Activity [11] | IC50 [12] [µM] |
| --- | --- | --- | --- | --- | --- | --- | --- | --- | --- | --- | --- | --- |
| Cc1nc2c(C)cccc2cc1C(=O)N/N=C/c1cccc(O)c1 | Dose-Dependent Effect | Dose-Dependent Effect | Active | 17.7 | Dose-Dependent Effect | 19.4 | 22.6 | Dose-Dependent Effect | Dose-Dependent Effect | Dose-Dependent Effect | Active | 17.2 |
| CC(C)=NNC(=O)c1cc2cccc(C)c2nc1C |  |  |  | > 40 |  | > 40 | > 40 |  |  |  |  | > 40 |
| Cc1ccc2nc(C)c(C(=O)N/N=C/c3cccc(O)c3)cc2c1 |  |  |  | > 40 |  | > 40 | > 40 |  |  |  |  | > 40 |
| Cc1nc2c(C)cccc2cc1C(=O)N/N=C/c1cccnc1 |  |  |  | 26.6 |  | > 40 | > 40 |  |  |  |  | 15.6 |
| Cc1nc2c(C)cccc2cc1C(=O)N/N=C/c1cccc(Cl)c1 |  |  |  | 3.1 |  | 9.92 | 4.31 |  |  |  |  | 2.49 |
| Cc1nc2c(C)cccc2cc1C(=O)N/N=C/c1c(C)[nH]c2ccccc12 |  |  |  | 17.4 |  | 11.1 | 20 |  |  |  |  | 10.4 |
| Cc1ccc2nc(C)c(C(=O)N/N=C/c3cccc([N+](=O)[O-])c3)cc2c1 |  |  |  | > 40 |  | > 40 | > 40 |  |  |  |  | > 40 |
| Cc1nc2c(C)cccc2cc1C(=O)N/N=C/c1ccccc1 |  |  |  | 10.1 |  | 37.6 | 16.4 |  |  |  |  | 11 |
| Cc1nc2ccccc2cc1C(=O)N/N=C/c1ccccn1 |  |  |  | > 40 |  | > 40 | > 40 |  |  |  |  | > 40 |
| COc1ccc2ccccc2c1/C=N/NC(=O)c1cc2cccc(C)c2nc1C |  |  |  | > 40 |  | > 40 | > 40 |  |  |  |  | > 40 |
